Measurements as given in patent US9994528B2, “Certain amino-pyridines and amino-triazines, compositions thereof, and methods for their use” (Cytokinetics, Inc., priority 2010, dated 2018).

These compounds were tested on rabbit skeletal myofibrils (approximately 90% fast fibers) (assay: Activation of fast skeletal myofibrils (PUMA coupled-enzyme ATPase assay)). Details: AC1.4 = concentration at which the compound increased the enzymatic activity by 40%; myofibril suspension at calcium level pCa25; PM12 buffer pH 6.8.
Format: biochemical
Description: Preparation of fast skeletal myofibrils. Rabbit skeletal myofibrils were prepared based upon the method of Herrmann et al. (Biochem. 32(28):7255-7263(1993). Myofibrils were prepared from rabbit psoas muscle purchased from Pel-Freez Biologicals (Arkansas) within 2 days of ordering, stored on ice. Minced muscle was homogenized in 10 volumes of ice-cold “standard” buffer (50 mM Tris, pH 7.4, 0.1 M potassium acetate, 5 mM KCl, 2 mM DTT, 0.2 mM PMSF, 10 μM leupeptin, 5 μM pepstatin, and 0.5 mM sodium azide) containing 5 mM EDTA and 0.5% Triton X-100 using an Omni-Macro homogenizer. Myofibrils were recovered by low speed centrifugation (3000 rpm for 10 minutes) and washed 2 times in the Triton X-100 containing buffer to ensure removal of cellular membrane. Following the Triton washes, myofibrils were washed 3 times in “standard” buffer containing 2 mM magnesium acetate. A final wash in assay buffer (12 mM PIPES, pH 6.8, 60 mM KCl, 1 mM DTT) was performed and brought to 10% sucrose for flash freezing in liquid nitrogen and storage at −80° C.
Activation of Fast Skeletal Myofibrils. Fast fiber activators were identified by measuring the enzymatic activity of muscle myofibril preparations using the proprietary PUMA™ (see, e.g., U.S. Pat. Nos. 6,410,254, 6,743,599, 7,202,051, and 7,378,254) assay system. Myofibril preparations consisted of rabbit skeletal muscle (approximately 90% fast fibers) that had been mechanically homogenized and washed with a detergent (triton X-100) to remove cellular membranes. This preparation retained all of the sarcomeric components in a native conformation and the enzymatic activity was still regulated by calcium. Compounds were tested using a myofibril suspension and a level of calcium sufficient to increase enzymatic activity of the myofibrils to 25% of their maximal rate (termed pCa25). Enzymatic activity was tracked via a pyruvate kinase and lactate dehydrogenase-coupled enzyme system. This assay regenerates myosin-produced ADP into ATP by oxidizing NADH, producing an absorbance change at 340 nm. The buffering system was 12 mM Pipes, 2 mM MgCl2, 1 mM DTT at pH 6.8 (PM12 buffer).
Using procedures similar to those described herein, utilizing reagents and intermediates commercially available (e.g., Sigma-Aldrich,) or readily synthesized by one of skill in the art, the compounds in Table 2 were synthesized, characterized and tested. AC1.4 values were determined according to the procedure described in Example 25, and the reported median AC1.4 values are as follows: A=<1 uM; B=1-10 uM; C=10-20 uM; D=>20 uM.
With `CC(C)(Nc1ncc(-c2cc(C(N)=O)ccc2F)nn1)c1cccc(OC(F)F)n1` [3-[3-({1-[6-(difluoromethoxy)(2-pyridyl)]-isopropyl}amino)(1,2,4-triazin-6-yl)]-4-fluorobenzamide] the “Mean AC1.4” value was “A (A=<1 uM)”.
For `CC(C)(Nc1ncc(-c2cc(C(N)=O)ccc2F)nn1)c1cccc(C(F)F)n1` [3-[3-({1-[6-(difluoromethyl)(2-pyridyl)]-isopropyl}amino)(1,2,4-triazin-6-yl)]-4-fluorobenzamide], the “Mean AC1.4” value was “B (B=1-10 uM)”.
`CC(C)(Nc1ncc(-c2cc(C#N)ccc2F)nn1)c1cccc(C(F)F)n1` [3-[3-({1-[6-(difluoromethyl)(2-pyridyl)]-isopropyl}amino)(1,2,4-triazin-6-yl)]-4-fluorobenzenecarbonitrile] was tested, and the “Mean AC1.4” value was “B (B=1-10 uM)”.
For `NC(=O)c1ccc(F)c(-c2cnc(NCC3(c4ncccc4Cl)CC(F)(F)C3)nn2)c1` [3-[3-({[1-(3-chloro(2-pyridyl))-3,3-difluorocyclobutyl]methyl}amino)(1,2,4-triazin-6-yl)]-4-fluorobenzamide], the “Mean AC1.4” value was “A (A=<1 uM)”.
For `NC(=O)c1ccc(F)c(-c2cnc(NC[C@]3(c4ncccc4Cl)C[C@H](F)C3)nn2)c1` [3-[3-({[1-(3-chloro(2-pyridyl))-3-fluorocyclobutyl]methyl}amino)(1,2,4-triazin-6-yl)]-4-fluorobenzamide], the “Mean AC1.4” value was “A (A=<1 uM)”.
For `NC(=O)c1cccc(-c2cnc(NC[C@]3(c4ncccc4Cl)C[C@H](F)C3)nn2)c1` [3-[3-({[1-(3-chloro(2-pyridyl))-3-fluorocyclobutyl]methyl}amino)-1,2,4-triazin-6-yl]benzamide], the “Mean AC1.4” value was “A (A=<1 uM)”.
With `N#Cc1cccc(-c2cnc(NC[C@]3(c4ncccc4Cl)C[C@H](F)C3)nn2)c1` [3-[3-({[1-(3-chloro(2-pyridyl))-3-fluorocyclobutyl]methyl}amino)-1,2,4-triazin-6-yl]benzenecarbonitrile] the “Mean AC1.4” value was “B (B=1-10 uM)”.
In the case of `NC(=O)c1ccc(O)c(-c2cnc(NC[C@]3(c4ncccc4F)C[C@H](F)C3)nn2)c1` [3-[3-({[3-fluoro-1-(3-fluoro(2-pyridyl))cyclobulyl]methyl}amino)(1,2,4-triazin-6-yl)]-4-hydroxybenzamide], the “Mean AC1.4” value is reported as “A (A=<1 uM)”.
With `NC(=O)c1cccc(-c2cnc(NC[C@]3(c4ncccc4F)C[C@H](F)C3)nn2)c1` [3-[3-({[3-fluoro-1-(3-fluoro(2-pyridyl))cyclobutyl]methyl}amino)-1,2,4-triazin-6-yl]benzamide] the “Mean AC1.4” value was “A (A=<1 uM)”.
With `NC(=O)c1ccc(F)c(-c2cnc(NC3(c4cccc(OC(F)F)n4)CCC3)nn2)c1` [3-[3-({[6-(difluoromethoxy)(2-pyridyl)]cyclobulyl}amino)(1,2,4-triazin-6-yl)]-4-fluorobenzamide] the “Mean AC1.4” value was “A (A=<1 uM)”.
For `CC(Nc1ncc(-c2cc(C(N)=O)ccc2F)nn1)c1cccc(OC(F)F)n1` (centres unmarked) [3-[3-({[6-(difluoromethoxy)(2-pyridyl)]ethyl}amino)(1,2,4-triazin-6-yl)]-4-fluorobenzamide], the “Mean AC1.4” value was “C (C=10-20 uM)”.
In the case of `NC(=O)c1ccc(F)c(-c2cnc(NCc3cccc(OC(F)F)n3)nn2)c1` [3-[3-({[6-(difluoromethoxy)(2-pyridyl)]methyl}amino)(1,2,4-triazin-6-yl)]-4-fluorobenzamide], the “Mean AC1.4” value is reported as “D (D=>20 uM)”.
With `NC(=O)c1ccc(F)c(-c2cnc(NCC3(c4ncccc4Cl)CCC3)nn2)c1` [3-[3-({[(3-chloro(2-pyridyl))cyclobutyl]methyl}amino)(1,2,4-triazin-6-yl)]-4-fluorobenzamide] the “Mean AC1.4” value was “A (A=<1 uM)”.
`O=C(O)c1ccc(F)c(-c2cnc(NCC3(c4ncccc4Cl)CCC3)nn2)c1` [3-[3-({[(3-chloro(2-pyridyl))cyclobutyl]methyl}amino)(1,2,4-triazin-6-yl)]-4-fluorobenzoic acid] was tested, and the “Mean AC1.4” value was “A (A=<1 uM)”.
`NC(=O)c1cccc(-c2cnc(NCC3(c4ncccc4F)CCC3)nn2)c1` [3-[3-({[(3-fluoro-2-pyridyl)cyclobutyl]methyl}amino)-1,2,4-triazin-6-yl]benzamide] was tested, and the “Mean AC1.4” value was “B (B=1-10 uM)”.
For `NC(=O)c1cccc(-c2cnc(NC[C@]3(c4ncccc4F)C[C@H](F)C3)c(F)c2)c1` [3-[5-fluoro-6-({[3-fluoro-1-(3-fluoro(2-pyridyl))cyclobutyl]methyl}amino)-3-pyridyl]benzamide], the “Mean AC1.4” value was “B (B=1-10 uM)”.
In the case of `NC(=O)c1cccc(-c2ncc(NCC3(c4ccc(F)cc4)CCC3)nn2)c1` [3-[6-({[(4-fluorophenyl)cyclobutyl]methyl}amino 1,2,4-triazin-3-yl]benzamide], the “Mean AC1.4” value is reported as “A (A=<1 uM)”.
`CC(C)(Nc1ncc(-c2ccc(C(N)=O)cc2F)nn1)c1ncccc1F` [3-fluoro-4-(3-{[1-(3-fluoro(2-pyridyl))-isopropyl]amino}(1,2,4-triazin-6-yl))benzamide] was tested, and the “Mean AC1.4” value was “D (D=>20 uM)”.
With `CC(C)(C)Nc1ncc(-c2cc(C(N)=O)ccc2F)nn1` [3-{3-[(tert-butyl)amino](1,2(4-triazin-6-yl)}-4-fluorobenzamide] the “Mean AC1.4” value was “D (D=>20 uM)”.
In the case of `NC(=O)c1cccc(-c2ccc(NC(=O)Cc3ccc(F)cc3)nc2)c1` [3-{6-[2-(4-fluorophenyl)acetylamino]-3-pyridyl}benzamide], the “Mean AC1.4” value is reported as “D (D=>20 uM)”.
With `CC(C)(CNc1ccc(-c2ccc(C(N)=O)cc2)cn1)c1ccc(F)cc1` [4-(6-{[2-(4-fluorophenyl)-2-methylpropyl]amino}-3-pyridyl)benzamide] the “Mean AC1.4” value was “B (B=1-10 uM)”.
In the case of `CC(C)(Nc1ncc(-c2cc(C(N)=O)ccc2F)nn1)c1ncccc1F` [4-fluoro-3-(3-{[1-(3-fluoro(2-pyridyl))-isopropyl]amino}(1,2,4-triazin-6-yl))benzamide], the “Mean AC1.4” value is reported as “B (B=1-10 uM)”.
`CC(C)(Nc1ncc(-c2cc(C(=O)O)ccc2F)nn1)c1ncccc1F` [4-fluoro-3-(3-{[1-(3-fluoro(2-pyridyl))-isopropyl]amino}(1,2,4-triazin-6-yl))benzoic acid] was tested, and the “Mean AC1.4” value was “C (C=10-20 uM)”.
With `Cc1ccc(F)c(C(C)(C)Nc2ncc(-c3cc(C(N)=O)ccc3F)nn2)n1` [4-fluoro-3-(3-{[1-(3-fluoro-6-methyl(2-pyridyl))-isopropyl]amino}(1,2,4-triazin-6-yl))benzamide] the “Mean AC1.4” value was “B (B=1-10 uM)”.
For `CC(C)(Nc1ncc(-c2cc(C(N)=O)ccc2F)nn1)c1ccc(F)cc1` [4-fluoro-3-(3-{[1-(4-fluorophenyl)-isopropyl]amino}(1,2,4-triazin-6-yl))benzamide], the “Mean AC1.4” value was “A (A=<1 uM)”.
With `Cc1nc(C(C)(C)Nc2ncc(-c3cc(C(N)=O)ccc3F)nn2)ccc1F` [4-fluoro-3-(3-{[1-(5-fluoro-6-methyl(2-pyridyl))-isopropyl]amino}(1,2,4-triazin-6-yl))benzamide] the “Mean AC1.4” value was “B (B=1-10 uM)”.
With `Cc1cccc(C(C)(C)Nc2ncc(-c3cc(C(N)=O)ccc3F)nn2)n1` [4-fluoro-3-(3-{[1-methyl-1-(6-methyl(2-pyridyl))ethyl]amino}(1,2,4-triazin-6-yl))benzamide] the “Mean AC1.4” value was “C (C=10-20 uM)”.
With `NC(=O)c1ccc(F)c(-c2cnc(NCC3(c4ccccn4)CCC3)nn2)c1` [4-fluoro-3-(3-{[(2-pyridylcyclobutyl)methyl]amino}(1,2,4-triazin-6-yl))benzamide] the “Mean AC1.4” value was “B (B=1-10 uM)”.
For `NC(=O)c1ccc(F)c(-c2cnc(NC3(c4ncccc4F)CCC3)nn2)c1` [4-fluoro-3-(3-{[(3-fluoro(2-pyridyl))cyclobutyl]amino}(1,2,4-triazin-6-yl))benzamide], the “Mean AC1.4” value was “B (B=1-10 uM)”.
For `CC(Nc1ncc(-c2cc(C(N)=O)ccc2F)nn1)c1ncccc1F` (centres unmarked) [4-fluoro-3-(3-{[(3-fluoro(2-pyridyl))ethyl]amino}(1,2,4-triazin-6-yl))benzamide], the “Mean AC1.4” value was “C (C=10-20 uM)”.
`NC(=O)c1ccc(F)c(-c2cnc(NC3(c4ccc(F)cc4)CCC3)nn2)c1` [4-fluoro-3-(3-{[(4-fluorophenyl)cyclobutyl]amino}(1,2,4-triazin-6-yl))benzamide] was tested, and the “Mean AC1.4” value was “B (B=1-10 uM)”.
In the case of `CC(C)(Nc1ncc(-c2cc(C(N)=O)ccc2F)nn1)c1cccc(S(C)(=O)=O)c1` [4-fluoro-3-[3-({1-methyl-1-[3-(methylsulfonyl)phenyl]ethyl}amino)(1,2,4-triazin-6-yl)]benzamide], the “Mean AC1.4” value is reported as “D (D=>20 uM)”.
